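Cultured in 96-well plates, cells were exposed to test compound for 48 hours across five concentrations. Here, GI50 denotes the concentration required for 50% inhibition of growth.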 The source made the active and inactive calls. No stated cut-off is given here; in the data, active = GI50 up to about 1.1 µM and inactive = higher.
Experiments:
Assay in all cases: NCI tumour cell line growth inhibition, 48 h
MOLT-4 = tested on: MOLT-4
SNB-19 = tested on: SNB-19
UACC-257 = tested on: UACC-257
M14 = tested on: M14
T47D = tested on: T47D
NCI/ADR-RES = tested on: NCI/ADR-RES
OVCAR-8 = tested on: OVCAR-8
786-0 = tested on: 786-0
DU-145 = tested on: DU-145
MDA-MB-231 = tested on: MDA-MB-231
MDA-MB-435 = tested on: MDA-MB-435
NCI-H460 = tested on: NCI-H460
A549 = tested on: A549
NCI-H226 = tested on: NCI-H226
HOP-62 = tested on: HOP-62
OVCAR-4 = tested on: OVCAR-4
SF-295 = tested on: SF-295
KM12 = tested on: KM12
UACC-62 = tested on: UACC-62
SR = tested on: SR

Measured: GI50

CCN(CC)CC1CCCCN1CC(=O)N1c2ccccc2NC(=O)CC1C (stereo unspecified)
inactive: MOLT-4 > 100 µM | SNB-19 > 100 µM | UACC-257 > 100 µM | M14 > 100 µM | T47D > 100 µM | NCI/ADR-RES > 100 µM | OVCAR-8 > 100 µM | 786-0 > 100 µM | DU-145 > 100 µM | MDA-MB-231 > 100 µM | MDA-MB-435 > 100 µM | NCI-H460 > 100 µM | A549 > 100 µM | NCI-H226 > 100 µM | HOP-62 > 100 µM | OVCAR-4 > 100 µM | SF-295 > 100 µM | KM12 > 100 µM

CC1C2(C)OC(=N)C(C#N)(C(c3ccco3)O2)C1(C#N)C#N (stereo unspecified)
inactive: MOLT-4 32.2 µM | SNB-19 42.5 µM | UACC-257 20.5 µM | M14 19.1 µM | T47D 17.8 µM | NCI/ADR-RES > 100 µM | OVCAR-8 39.9 µM | 786-0 20.8 µM | DU-145 31 µM | UACC-62 17.7 µM | MDA-MB-231 19.1 µM | NCI-H460 19.3 µM | A549 > 100 µM | NCI-H226 > 100 µM | SF-295 > 100 µM | KM12 59.8 µM

COc1ccccc1-c1nc(-c2ccccc2O)n[nH]1
inactive: MOLT-4 > 100 µM | SNB-19 > 100 µM | UACC-257 > 100 µM | M14 > 100 µM | T47D 37.2 µM | NCI/ADR-RES > 100 µM | OVCAR-8 > 100 µM | 786-0 > 100 µM | DU-145 > 100 µM | UACC-62 > 100 µM | MDA-MB-231 > 100 µM | MDA-MB-435 > 100 µM | NCI-H460 > 100 µM | A549 > 100 µM | NCI-H226 > 100 µM | HOP-62 > 100 µM | OVCAR-4 > 100 µM | SF-295 > 100 µM | KM12 > 100 µM

CCN(CC)CCNC(=O)c1nn(-c2ccc(Cl)cc2)c2c1CCc1cc(OC)ccc1-2
inactive: MOLT-4 5.75 µM | SNB-19 10.5 µM | UACC-257 1.82 µM | M14 2.38 µM | T47D 4.3 µM | OVCAR-8 12.3 µM | 786-0 3.52 µM | SR 4.28 µM | DU-145 15.3 µM | UACC-62 2.77 µM | MDA-MB-231 12.1 µM | MDA-MB-435 9.98 µM | NCI-H460 4.51 µM | A549 8.22 µM | NCI-H226 9.38 µM | HOP-62 13.3 µM | OVCAR-4 8.04 µM | SF-295 3.74 µM | KM12 6.53 µM

CC1CC(=O)Nc2ccc(/N=N/N(C)C)cc2N1C=O (stereo unspecified)
inactive: MOLT-4 > 100 µM | SNB-19 > 100 µM | UACC-257 > 100 µM | M14 > 100 µM | T47D > 100 µM | NCI/ADR-RES > 100 µM | OVCAR-8 > 100 µM | 786-0 > 100 µM | DU-145 > 100 µM | UACC-62 > 100 µM | MDA-MB-231 > 100 µM | MDA-MB-435 > 100 µM | NCI-H460 > 100 µM | A549 > 100 µM | NCI-H226 > 100 µM | HOP-62 > 100 µM | OVCAR-4 > 100 µM | SF-295 > 100 µM | KM12 > 100 µM

COc1cc(OC)c(OC)cc1/C=C/c1ccccn1
inactive: MOLT-4 > 10 µM | SNB-19 > 10 µM | UACC-257 > 10 µM | M14 > 10 µM | T47D > 10 µM | NCI/ADR-RES > 10 µM | OVCAR-8 > 10 µM | 786-0 > 10 µM | DU-145 > 10 µM | UACC-62 > 10 µM | MDA-MB-231 > 10 µM | MDA-MB-435 > 10 µM | NCI-H460 > 10 µM | A549 > 10 µM | NCI-H226 > 10 µM | HOP-62 > 10 µM | OVCAR-4 > 10 µM | SF-295 > 10 µM | KM12 > 10 µM

Cc1ccc(-n2nncc2[Si](C)(C)C)s1
inactive: SNB-19 > 100 µM | UACC-257 > 100 µM | M14 > 100 µM | T47D > 100 µM | NCI/ADR-RES > 100 µM | OVCAR-8 > 100 µM | 786-0 > 100 µM | DU-145 > 100 µM | UACC-62 > 100 µM | MDA-MB-231 > 100 µM | MDA-MB-435 > 100 µM | NCI-H460 > 100 µM | A549 > 100 µM | NCI-H226 > 100 µM | OVCAR-4 > 100 µM | SF-295 > 100 µM

S=C(N/N=C\C=N/NC(=S)N1CCCCC1)N1CCCCC1
inactive: UACC-257 1.25 µM | MDA-MB-231 > 96.2 µM
active: SNB-19 0.41 µM | M14 0.208 µM | T47D 0.287 µM | NCI/ADR-RES 0.267 µM | OVCAR-8 0.178 µM | 786-0 0.525 µM | DU-145 0.202 µM | UACC-62 0.594 µM | MDA-MB-435 1.01 µM | NCI-H460 < 0.0151 µM | A549 0.107 µM | NCI-H226 0.489 µM | HOP-62 0.203 µM | SF-295 0.155 µM | KM12 0.54 µM

CCOC(=O)c1[nH]cc(C)c1-c1cccn1-c1ccc(Cl)cc1[N+](=O)[O-]
inactive: MOLT-4 17.1 µM | UACC-257 20.1 µM | M14 14.9 µM | T47D 31 µM | NCI/ADR-RES 17.5 µM | OVCAR-8 20.8 µM | 786-0 18.2 µM | DU-145 35.1 µM | UACC-62 18.2 µM | MDA-MB-231 8.24 µM | MDA-MB-435 19.6 µM | NCI-H460 18.8 µM | A549 23 µM | NCI-H226 16.7 µM | HOP-62 18.6 µM | OVCAR-4 32.5 µM | SF-295 28.2 µM | KM12 20.1 µM

Cc1cc(OC2OC(CO)C(O)C(O)C2O)ccc1O (stereo unspecified)
inactive: MOLT-4 > 100 µM | SNB-19 > 100 µM | UACC-257 > 100 µM | M14 > 100 µM | T47D > 100 µM | NCI/ADR-RES > 100 µM | OVCAR-8 > 100 µM | 786-0 > 100 µM | DU-145 > 10 µM | UACC-62 > 100 µM | MDA-MB-231 > 100 µM | MDA-MB-435 > 100 µM | NCI-H460 > 100 µM | A549 > 100 µM | HOP-62 > 100 µM | OVCAR-4 > 100 µM | SF-295 > 100 µM | KM12 > 100 µM

S=c1scc(-c2ccc(Cl)cc2)n1OC1CCCC1
inactive: MOLT-4 15.9 µM | SNB-19 69 µM | UACC-257 27 µM | M14 36.9 µM | T47D 12.9 µM | NCI/ADR-RES 23.8 µM | OVCAR-8 33.8 µM | 786-0 37 µM | DU-145 29.4 µM | UACC-62 24.4 µM | MDA-MB-231 39.5 µM | MDA-MB-435 15.7 µM | NCI-H460 25.2 µM | A549 26.2 µM | HOP-62 36.7 µM | OVCAR-4 16.7 µM | SF-295 30.5 µM | KM12 18.5 µM

O=C(O)c1cccc(/C=C/c2ccccc2)c1
inactive: MOLT-4 > 100 µM | SNB-19 > 100 µM | UACC-257 > 100 µM | M14 > 100 µM | T47D > 100 µM | NCI/ADR-RES > 100 µM | OVCAR-8 > 100 µM | 786-0 > 100 µM | DU-145 3.08 µM | UACC-62 > 100 µM | MDA-MB-231 > 100 µM | MDA-MB-435 > 100 µM | NCI-H460 > 100 µM | A549 > 100 µM | NCI-H226 > 100 µM | HOP-62 > 100 µM | OVCAR-4 > 100 µM | SF-295 > 100 µM | KM12 > 100 µM

O=S(=O)(c1ccccc1)c1ccc(/N=N/O)nc1
inactive: MOLT-4 22.4 µM | SNB-19 > 100 µM | UACC-257 > 100 µM | M14 > 100 µM | T47D > 100 µM | NCI/ADR-RES > 100 µM | OVCAR-8 > 100 µM | 786-0 > 100 µM | SR > 100 µM | DU-145 > 100 µM | UACC-62 > 100 µM | MDA-MB-231 > 100 µM | NCI-H460 > 100 µM | A549 > 100 µM | NCI-H226 > 100 µM | HOP-62 > 100 µM | OVCAR-4 > 100 µM | SF-295 > 100 µM | KM12 > 100 µM

CC(=O)C1C(=O)C(=O)N(c2cccc(C)c2C)C1=O (stereo unspecified)
inactive: MOLT-4 22.8 µM | SNB-19 > 100 µM | UACC-257 > 100 µM | M14 > 100 µM | T47D > 100 µM | NCI/ADR-RES > 100 µM | OVCAR-8 > 100 µM | 786-0 > 100 µM | DU-145 > 100 µM | UACC-62 > 100 µM | MDA-MB-231 > 100 µM | A549 > 100 µM | NCI-H226 > 100 µM | HOP-62 > 100 µM | SF-295 > 100 µM | KM12 > 100 µM

COc1cc(/C=C2\CC3C4CC[C@H]5C[C@@H](O)CC[C@]5(C)C4CC[C@]3(C)C2=O)cc(OC)c1OC (stereo partly specified)
inactive: MOLT-4 4.82 µM | SNB-19 17.5 µM | UACC-257 21.8 µM | M14 17.4 µM | T47D 3.7 µM | NCI/ADR-RES 16.7 µM | OVCAR-8 15.8 µM | 786-0 16 µM | DU-145 27.2 µM | UACC-62 17.6 µM | MDA-MB-231 22.1 µM | MDA-MB-435 13.5 µM | NCI-H460 10.7 µM | A549 7.18 µM | NCI-H226 13.6 µM | HOP-62 13 µM | OVCAR-4 4.61 µM | SF-295 4.69 µM | KM12 9.75 µM

COc1c(O)c(OC)c(C(=O)/C=C/c2ccccc2)c(O)c1OC [PEDICIN]
inactive: MOLT-4 30.5 µM | SNB-19 92 µM | UACC-257 > 100 µM | M14 37.6 µM | T47D 20.9 µM | NCI/ADR-RES 18.2 µM | OVCAR-8 17.9 µM | 786-0 32.4 µM | DU-145 29.1 µM | MDA-MB-231 21.3 µM | MDA-MB-435 27.9 µM | NCI-H460 19.1 µM | NCI-H226 29.4 µM | OVCAR-4 27.9 µM | SF-295 35.6 µM | KM12 30.3 µM
